Test results published in ChEMBL document CHEMBL1201862, “PubChem BioAssay data set” (2004).
Activity calls are given as the source filed them.

Assays:
[1] = biological target: T1, Zinc finger protein mex-5 (Caenorhabditis elegans, UniProt Q9XUB2); assay: MEX-5/TCR-2 RNA interaction inhibitors, dose response, biochemical, C. elegans, fluorescence polarization (AID 1960)
T1 sequence (Q9XUB2 whole entry): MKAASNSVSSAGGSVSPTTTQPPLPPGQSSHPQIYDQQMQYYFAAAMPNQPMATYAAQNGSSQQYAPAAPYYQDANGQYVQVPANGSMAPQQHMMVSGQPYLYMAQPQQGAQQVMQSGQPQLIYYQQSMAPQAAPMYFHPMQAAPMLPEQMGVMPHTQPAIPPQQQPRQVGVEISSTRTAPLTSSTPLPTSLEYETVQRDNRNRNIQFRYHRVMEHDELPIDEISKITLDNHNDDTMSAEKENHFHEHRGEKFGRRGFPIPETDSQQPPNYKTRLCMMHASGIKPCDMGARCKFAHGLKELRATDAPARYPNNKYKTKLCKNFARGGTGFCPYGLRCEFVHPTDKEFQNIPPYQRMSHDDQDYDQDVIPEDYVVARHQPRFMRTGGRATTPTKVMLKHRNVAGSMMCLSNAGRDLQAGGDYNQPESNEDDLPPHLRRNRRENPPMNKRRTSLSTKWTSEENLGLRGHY

[2] = biological target: T2, RNA-binding protein pos-1 (Caenorhabditis elegans, UniProt G5EF15); assay: inhibitors of POS-1/mex-3 RNA binding, dose response, biochemical, fluorescence polarization (AID 1964);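 further: purified POS-1 fused to maltose binding protein made in E. coli; potency of compounds blocking POS-1 binding to fluorescent RNA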
T2 sequence (G5EF15 whole entry): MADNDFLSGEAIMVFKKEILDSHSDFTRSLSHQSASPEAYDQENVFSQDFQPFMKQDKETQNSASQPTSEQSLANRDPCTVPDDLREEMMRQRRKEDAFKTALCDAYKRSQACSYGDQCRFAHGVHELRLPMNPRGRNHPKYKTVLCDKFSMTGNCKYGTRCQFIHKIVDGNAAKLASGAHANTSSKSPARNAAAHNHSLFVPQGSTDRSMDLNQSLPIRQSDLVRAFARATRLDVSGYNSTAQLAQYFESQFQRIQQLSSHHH

BJ [3] = assay: cytotoxicity toward BJ-TERT fibroblasts, dose response, cell-based, RAS-independent, luminescence (AID 1933); format: functional; conditions: Homo sapiens
BJ [4] = assay: cytotoxicity toward BJ-TERT-LT-ST fibroblasts, dose response, cell-based, RAS-independent, luminescence (AID 1935); format: functional; conditions: Homo sapiens;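 further: BJ fibroblasts immortalized with TERT plus LT and ST oncogenes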
BJ [5] = assay: cells; format: functional, cell-based; conditions: Homo sapiens
[6] = cytotoxicity toward DRD oncogenic fibroblasts, dose response, cell-based, non-viral oncogenic, luminescence (AID 1934); format: functional; conditions: Homo sapiens
Streptococcus = assay: Group A Streptococcus viability loss, dose response, counter-screen for streptokinase expression inhibitor project, luminescence, BacTiterGlo (AID 1915); format: functional, organism-based;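 further: potency for reduction of bacterial viability or growth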
[7] = test system: Streptococcus sp. 'group A'; assay: growth inhibition of control SK(-) GAS strain, dose response, counter-screen for streptokinase expression inhibitor project, luminescence, kanamycin, BacTiterGlo, confirmation (AID 1900); format: functional, organism-based
Aminopeptidase N = biological target: T3, Aminopeptidase N (Plasmodium falciparum FcB1/Columbia, UniProt O96935); assay: P. falciparum M1AAP inhibitors, biochemical, fluorogenic H-Leu-NHMec substrate, 1536-well (AID 1445); design: species or system Plasmodium falciparum 3D7, 3D7
T3 sequence (O96935 whole entry): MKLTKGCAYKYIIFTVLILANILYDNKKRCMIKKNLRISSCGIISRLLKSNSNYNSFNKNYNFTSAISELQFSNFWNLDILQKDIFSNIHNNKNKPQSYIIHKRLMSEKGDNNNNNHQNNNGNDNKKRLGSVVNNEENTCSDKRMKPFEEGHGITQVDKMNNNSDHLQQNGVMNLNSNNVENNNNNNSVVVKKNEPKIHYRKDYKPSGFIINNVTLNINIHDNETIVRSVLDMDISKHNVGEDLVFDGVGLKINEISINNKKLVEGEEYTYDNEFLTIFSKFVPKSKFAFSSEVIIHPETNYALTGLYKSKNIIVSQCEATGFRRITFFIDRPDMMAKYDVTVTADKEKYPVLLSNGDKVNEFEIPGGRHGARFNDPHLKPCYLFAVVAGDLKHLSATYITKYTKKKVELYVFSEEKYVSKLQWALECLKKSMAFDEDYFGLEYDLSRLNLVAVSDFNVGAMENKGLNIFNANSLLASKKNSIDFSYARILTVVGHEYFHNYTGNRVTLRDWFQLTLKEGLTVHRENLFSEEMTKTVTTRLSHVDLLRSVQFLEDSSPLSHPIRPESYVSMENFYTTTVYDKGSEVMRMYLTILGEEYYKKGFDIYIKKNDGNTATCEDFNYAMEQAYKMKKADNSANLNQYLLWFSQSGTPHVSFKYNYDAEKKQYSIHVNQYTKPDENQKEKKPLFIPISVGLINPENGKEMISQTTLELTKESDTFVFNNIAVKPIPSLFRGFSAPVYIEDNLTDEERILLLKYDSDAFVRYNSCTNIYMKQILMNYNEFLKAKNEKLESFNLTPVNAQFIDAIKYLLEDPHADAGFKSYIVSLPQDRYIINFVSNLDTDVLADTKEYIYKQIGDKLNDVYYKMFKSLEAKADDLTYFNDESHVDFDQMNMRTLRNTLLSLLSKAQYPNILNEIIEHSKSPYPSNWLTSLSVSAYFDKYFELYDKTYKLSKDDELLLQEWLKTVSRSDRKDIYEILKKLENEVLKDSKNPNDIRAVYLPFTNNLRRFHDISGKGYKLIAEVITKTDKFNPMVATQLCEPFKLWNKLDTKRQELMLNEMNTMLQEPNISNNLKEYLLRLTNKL

[8] = biological target: T4, Replicative DNA helicase DnaB (Mycobacterium tuberculosis, UniProt P9WMR3); assay: DnaB intein splicing inhibitors, dose response, biochemical, cell-free fluorescence (AID 449749); format: functional
T4 sequence (P9WMR3 whole entry): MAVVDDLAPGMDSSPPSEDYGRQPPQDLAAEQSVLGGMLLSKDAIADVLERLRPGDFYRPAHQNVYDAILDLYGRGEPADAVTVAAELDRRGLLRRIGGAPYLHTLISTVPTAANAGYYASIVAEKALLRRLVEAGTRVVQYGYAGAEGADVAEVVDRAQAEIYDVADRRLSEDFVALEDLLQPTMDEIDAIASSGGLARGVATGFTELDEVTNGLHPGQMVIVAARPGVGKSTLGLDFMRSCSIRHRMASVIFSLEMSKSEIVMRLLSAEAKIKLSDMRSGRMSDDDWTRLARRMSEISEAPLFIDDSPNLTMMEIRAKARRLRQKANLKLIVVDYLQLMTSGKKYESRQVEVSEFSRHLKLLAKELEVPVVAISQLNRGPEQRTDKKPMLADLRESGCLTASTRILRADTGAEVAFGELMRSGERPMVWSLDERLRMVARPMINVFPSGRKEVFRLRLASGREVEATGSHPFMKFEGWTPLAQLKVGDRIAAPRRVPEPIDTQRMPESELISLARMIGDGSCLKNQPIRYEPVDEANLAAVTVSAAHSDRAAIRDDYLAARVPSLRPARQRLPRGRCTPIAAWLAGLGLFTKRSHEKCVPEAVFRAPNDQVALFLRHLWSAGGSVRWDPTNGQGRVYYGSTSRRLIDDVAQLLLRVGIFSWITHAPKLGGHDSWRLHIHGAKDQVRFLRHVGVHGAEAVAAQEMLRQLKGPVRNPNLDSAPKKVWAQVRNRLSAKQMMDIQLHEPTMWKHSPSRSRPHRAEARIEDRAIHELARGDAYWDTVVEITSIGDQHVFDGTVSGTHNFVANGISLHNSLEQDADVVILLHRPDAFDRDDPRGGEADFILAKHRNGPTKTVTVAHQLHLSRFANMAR

Protein RecA = biological target: T5, Protein RecA (Mycobacterium tuberculosis, UniProt P9WHJ3); assay: Fluorescence Cell-Free Homogeneous Dose Retest to Identify Inhibitors of RecA-Intein Splicing Activity. [Related pubchem assays (depositor defined):AID2097, AID2223, AID489010, AID492950]; format: functional
T5 sequence (P9WHJ3 whole entry): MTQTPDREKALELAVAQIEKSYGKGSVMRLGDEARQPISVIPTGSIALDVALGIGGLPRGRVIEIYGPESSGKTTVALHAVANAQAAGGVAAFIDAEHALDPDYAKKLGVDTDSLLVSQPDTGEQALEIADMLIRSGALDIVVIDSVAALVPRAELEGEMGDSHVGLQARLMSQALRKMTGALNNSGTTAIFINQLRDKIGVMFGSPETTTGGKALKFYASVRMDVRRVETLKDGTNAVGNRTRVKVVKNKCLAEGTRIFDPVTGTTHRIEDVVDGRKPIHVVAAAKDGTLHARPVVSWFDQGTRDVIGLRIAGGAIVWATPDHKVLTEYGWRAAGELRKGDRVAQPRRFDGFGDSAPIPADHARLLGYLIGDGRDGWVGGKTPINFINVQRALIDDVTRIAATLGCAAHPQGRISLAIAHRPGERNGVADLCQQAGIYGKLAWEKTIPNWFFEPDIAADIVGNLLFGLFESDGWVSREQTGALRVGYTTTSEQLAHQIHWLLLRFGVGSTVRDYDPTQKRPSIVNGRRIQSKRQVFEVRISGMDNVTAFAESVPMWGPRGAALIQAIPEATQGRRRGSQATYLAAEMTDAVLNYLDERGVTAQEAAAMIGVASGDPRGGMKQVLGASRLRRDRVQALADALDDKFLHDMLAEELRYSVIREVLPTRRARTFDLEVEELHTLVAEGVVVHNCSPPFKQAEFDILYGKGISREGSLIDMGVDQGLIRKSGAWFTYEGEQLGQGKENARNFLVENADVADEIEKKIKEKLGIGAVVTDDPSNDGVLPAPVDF

Cytochrome P450 2C9 = Cytochrome P450 2C9 (Homo sapiens, UniProt P11712)
Cytochrome P450 2C19 = Cytochrome P450 2C19 (Homo sapiens, UniProt P33261); assay: Cytochrome panel assay with activity outcomes. Panel member name: p450-cyp2c19 Compounds with AC50 equal or less than 10 uM are considered active; format: functional; conditions: read-out: AC50
[9] = biological target: T6, Corticotropin-releasing factor receptor 2/Corticotropin-releasing factor-binding protein (Homo sapiens, UniProt P24387+Q13324); assay: activators of CRF receptor 2 with binding protein – uHTS hits, confirmation (AID 602473); format: functional; conditions: read-out: EC50_Mean
T6 sequence (Q13324 whole entry): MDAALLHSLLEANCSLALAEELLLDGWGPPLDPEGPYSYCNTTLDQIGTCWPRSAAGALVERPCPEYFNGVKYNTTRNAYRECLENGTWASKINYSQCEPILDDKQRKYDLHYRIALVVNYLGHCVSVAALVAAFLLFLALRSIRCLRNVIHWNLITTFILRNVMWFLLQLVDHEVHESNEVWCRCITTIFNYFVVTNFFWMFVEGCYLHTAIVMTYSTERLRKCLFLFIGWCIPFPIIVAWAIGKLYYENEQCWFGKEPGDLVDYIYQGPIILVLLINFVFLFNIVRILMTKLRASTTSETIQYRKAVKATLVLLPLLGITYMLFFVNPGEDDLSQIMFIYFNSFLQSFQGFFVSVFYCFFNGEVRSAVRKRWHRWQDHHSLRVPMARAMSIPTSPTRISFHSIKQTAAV
T6 sequence (P24387 whole entry): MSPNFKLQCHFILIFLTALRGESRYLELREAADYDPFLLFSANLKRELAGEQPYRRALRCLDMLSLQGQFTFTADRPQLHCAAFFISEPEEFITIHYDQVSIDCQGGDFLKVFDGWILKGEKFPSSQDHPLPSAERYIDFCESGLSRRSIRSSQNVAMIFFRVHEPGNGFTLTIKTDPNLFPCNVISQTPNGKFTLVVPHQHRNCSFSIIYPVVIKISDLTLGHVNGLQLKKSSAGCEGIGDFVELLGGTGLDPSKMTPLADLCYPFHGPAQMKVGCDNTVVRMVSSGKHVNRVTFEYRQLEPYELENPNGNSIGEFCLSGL

Cytochrome P450 2C19, sequence (P33261 whole entry): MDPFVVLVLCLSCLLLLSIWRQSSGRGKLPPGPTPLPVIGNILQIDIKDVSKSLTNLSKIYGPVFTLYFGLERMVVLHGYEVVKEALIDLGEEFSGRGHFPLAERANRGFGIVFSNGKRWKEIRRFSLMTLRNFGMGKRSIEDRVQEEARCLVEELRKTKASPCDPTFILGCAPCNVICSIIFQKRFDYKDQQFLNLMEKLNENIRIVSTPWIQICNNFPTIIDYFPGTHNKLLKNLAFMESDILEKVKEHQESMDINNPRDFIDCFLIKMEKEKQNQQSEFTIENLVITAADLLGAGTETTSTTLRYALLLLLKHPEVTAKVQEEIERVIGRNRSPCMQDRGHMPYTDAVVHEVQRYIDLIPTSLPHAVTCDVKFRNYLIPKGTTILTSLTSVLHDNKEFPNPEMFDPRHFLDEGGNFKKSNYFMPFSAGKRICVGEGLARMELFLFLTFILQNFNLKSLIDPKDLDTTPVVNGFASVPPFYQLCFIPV
Cytochrome P450 2C9, sequence (P11712 whole entry): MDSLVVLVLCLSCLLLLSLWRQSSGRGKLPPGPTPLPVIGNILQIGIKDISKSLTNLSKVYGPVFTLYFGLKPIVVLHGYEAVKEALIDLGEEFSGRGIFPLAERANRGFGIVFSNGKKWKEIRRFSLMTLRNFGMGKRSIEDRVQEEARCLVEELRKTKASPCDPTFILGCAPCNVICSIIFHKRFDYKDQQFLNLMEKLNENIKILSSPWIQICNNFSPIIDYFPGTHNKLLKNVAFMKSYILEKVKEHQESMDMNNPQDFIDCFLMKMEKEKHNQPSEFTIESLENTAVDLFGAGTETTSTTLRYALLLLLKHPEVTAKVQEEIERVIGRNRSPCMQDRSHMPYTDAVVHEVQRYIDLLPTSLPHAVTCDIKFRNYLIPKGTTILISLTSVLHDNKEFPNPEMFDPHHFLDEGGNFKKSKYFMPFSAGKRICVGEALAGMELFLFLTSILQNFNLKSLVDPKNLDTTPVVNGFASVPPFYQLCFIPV

Structure (SMILES)	EC50 [1]	EC50 [2]	IC50 (Aminopeptidase N)	further results
COc1ccc(/C=C/C(O)=C2\C(=O)NC(=O)N(CCC3=CCCCC3)C2=O)cc1OC	> 300 µM (inconclusive)	6.09 µM (inconclusive)		
Oc1cccc2cccnc12 [OXYQUINOLINE]				EC50 (BJ [3]): > 150 µM (not active); EC50 (BJ [4]): > 150 µM (not active); EC50 (BJ [5]): 125 µM (active); EC50 [6]: 17.9 µM (active)
Cc1ccc(-n2nc(C)c(/C=N/NC(=O)c3cccc([N+](=O)[O-])c3)c2O)cc1C				EC50 (BJ [3]): 9.53 µM (active); EC50 (Streptococcus): 6.18 µM (active); EC50 [7]: 2.02 µM (active); EC50 (BJ [4]): 16 µM (active); EC50 (BJ [5]): 37 µM (active); EC50 [6]: 10 µM (active)
COc1ccc(OC)c(NC(=O)C2C3C=CC(C3)C2C(=O)NCc2cccnc2)c1 (stereo not drawn)			48.2 µM (active)	
Cc1[nH][nH]c(=O)c1C(c1cc([N+](=O)[O-])ccc1O)c1c(C)[nH][nH]c1=O	16.7 µM (active)	64.5 µM (active)	30.1 µM (active)	AC50 [8]: 0.399 µM (active); EC50 (Protein RecA): 0.262 µM (active)
CCOC(=O)N1CCN(c2nc3ccccc3nc2C(C#N)S(=O)(=O)c2ccc(C)cc2)CC1 (stereo not drawn)	170 µM (inconclusive)	> 300 µM (inconclusive)		
CCOC(=O)C1=C(Nc2ccccc2)S/C(=C\c2ccc(OCC(=O)O)c(OCC)c2)C1=O			60.2 µM (active)	
CCCOc1ccc(C(C)=O)cc1CSc1nc(O)cc(=O)[nH]1			109 µM (active)	
CN1C(=O)C(=Cc2ccc(N3CCCCC3)o2)C(=O)N(C)C1=S	> 300 µM (inconclusive)	> 300 µM (inconclusive)		AC50 (Cytochrome P450 2C9): 11.2 µM (inconclusive); AC50 (Cytochrome P450 2C19): 2.82 µM (inconclusive)
Cc1cccc(S(=O)(=O)C(C#N)c2nc3ccccc3nc2N2CCOCC2)c1 (stereo not drawn)	> 300 µM (not active)	163 µM (active)		
COc1cc(/C=C2\C(=N)N3C(=NC2=O)Sc2cc(S(C)(=O)=O)ccc23)ccc1O			45.7 µM (active)	EC50 [9]: 5.19 µM (active)
O=C(COc1ccccc1/C=C1\SC(=O)NC1=O)Nc1ccccc1			32.6 µM (active)	
NS(=O)(=O)c1ccc(-c2cccc(/C=C3\SC(=O)NC3=O)c2)cc1	16.6 µM (active)	13 µM (active)		
